{
  "source": "patent US20080004227A1",
  "about": "“Pharmaceutical Composition for Lowering Blood Sugar Level” (PHARMAFRONTIER CO., LTD, priority 2004, published 2008)",
  "key": {"GLP-1 release": {"test_system": "GLP-1 release", "test": "In vivo effects of ligands for GT01 on GLP-1 release (plasma GLP-1 enzyme immunoassay)", "design": "species or system mouse", "details": "100 nmol/g directly into the stomach of 24-hour fasted C57/B6 mice; blood 0.5 or 2 hours after administration (FIG. 11)", "protocol": "A 100 nmol/g of fatty acid (α-linolenic acid, stearic acid, or octanoic acid) was included in polyethyleneglycol as a vehicle, and given, through a tube, directly into the stomach of 8-week old male C57/B6 mice (Sankyo Lab) after 24-hour fasting. The mice were each anaesthetized with diethyl ether 0.5 or 2 hours after the administration of the fatty acid, followed by sampling the blood from the portal vein using a heparinized syringe. The heparizized blood was centrifuged at 4° C. and 1,200×g for 20 minutes to prepare a plasma which was then subjected to enzyme immunoassay for GLP-1 (Yanaihara Institute Inc.). All experiments were performed according to an institute-approved guideline."}, "insulin release": {"test_system": "insulin release", "details": "100 nmol/g directly into the stomach of 24-hour fasted C57/B6 mice; 2 hours after administration (FIG. 13)", "protocol": "All experiments were performed according to an institute-approved guideline."}, "GT01": {"target": "GT01 (Mus musculus, UniProt Q7TMA4)", "sequence (Q7TMA4 whole entry)": "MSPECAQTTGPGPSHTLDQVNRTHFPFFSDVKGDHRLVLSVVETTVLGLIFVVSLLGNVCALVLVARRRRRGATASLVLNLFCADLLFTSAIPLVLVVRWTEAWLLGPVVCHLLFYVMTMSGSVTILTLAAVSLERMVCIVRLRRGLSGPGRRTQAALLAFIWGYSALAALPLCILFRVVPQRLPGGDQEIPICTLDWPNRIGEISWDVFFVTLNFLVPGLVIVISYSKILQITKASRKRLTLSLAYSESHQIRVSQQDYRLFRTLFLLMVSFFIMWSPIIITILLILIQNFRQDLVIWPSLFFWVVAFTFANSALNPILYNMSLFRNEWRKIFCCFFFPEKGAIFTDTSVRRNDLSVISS", "details": "STC-1 cells; peak eliminated by RNAi specific for GT01 (FIG. 6)", "experimental": "Cells (STC-1 cells) are cultured in a 35-mm culture dish with a cover glass in the bottom. After washing with a Ca-tyrode solution, a Ca-tyrode solution containing 2 μM fura-AM is added thereto, which is then placed at room temperature for 20 minutes. After washing twice with a Ca-tyrode solution, 1 mL of Ca-tyrode solution is added thereto, and images are captured at room temperature at 15-second intervals using ARGUS200 (340/380 nm measurement) with a 40× objective lens. For each of the captured images, the ratio is calculated. Stimulation (using bombesin) serving as a control for the ligand is carried out 10 and 20 minutes later.\nWhen an RNAi vector was transfected, fluorescence due to GFP simultaneously transfected is measured; a Ca^2+ response over time for cells having GFP fluorescence and showing Ca^2+ elevation with the control vector was quantitatively determined, and is indicated (FIG. 6).\nThe gene transfection into STC-1 cells was carried out using Lipofectamine Plus, and intracellular Ca^2+ concentration was then measured under a microscope (lower graph in FIG. 6)."}, "[1]": {"test_system": "human intestinal cell line NCI-H716", "details": "literature report, background art; cited from earlier work"}},
  "data": [
    {"smiles": "CC/C=C\\C/C=C\\C/C=C\\CCCCCCCC(=O)O", "note": "[α-linolenic acid]", "values": [
      {"measurement": "secretion of GLP-1 (plasma from portal vein)", "setting": "GLP-1 release", "value": "induced"},
      {"measurement": "insulin concentration in plasma, portal vein versus inferior vena cava", "setting": "insulin release", "value": "higher concentration of insulin was detected in the plasma sampled from the portal vein"},
      {"measurement": "elevation of intracellular calcium concentration", "setting": "GT01", "value": "elevates intracellular calcium concentration via GT01"}
    ]},
    {"smiles": "CCCCCCCCCCCCCCCCCC(=O)O", "note": "[stearic acid]", "values": [
      {"measurement": "secretion of GLP-1 (plasma from portal vein)", "setting": "GLP-1 release", "value": "induced"}
    ]},
    {"smiles": "CCCCCCCC/C=C\\CCCCCCCC(=O)O", "note": "[oleic acid]", "values": [
      {"measurement": "secretion of GLP-1 from NCI-H716 cells", "setting": "[1]", "value": "promotes the secretion of GLP-1"}
    ]},
    {"smiles": "CCCCCCCCCCCCCCCC(=O)O", "note": "[palmitic acid]", "values": [
      {"measurement": "secretion of GLP-1 from NCI-H716 cells", "setting": "[1]", "value": "promotes the secretion of GLP-1"}
    ]}
  ]
}
